The compounds below were run on human ABCA1 promoter (assay: ABCA1 promoter test (luciferase reporter in stably transfected THP1 cell line)). Details: Homo sapiens, THP-1, 24 h; read-out: E50 ABCA1.
Assay type: cell-based
Procedure: The potency of substances which activate expression of the human ABCA1 gene via its promoter is analyzed by using a stably transfected THP1 cell line (human monocyte cell line) which is referred to herein as ABCA1 reporter cell line. It contains a fragment, 3.2 kb in size and stably integrated into the genome, of the human ABCA1 promoter in front of a luciferase reporter element. Expression of the luciferase reporter gene is only low without addition of an ABCA1 expression activator. The substances stimulating ABCA1 expression bring about, via activation of the ABCA1 promoter, an enhanced expression of the luciferase reporter gene. The luciferase which is formed can be detected via an appropriate substrate by means of chemiluminescence.
Construction of the Cell Line
The ABCA1 reporter line was prepared as follows: firstly the neomycin resistance gene (Acc. No.: AJ000156) was introduced into the luciferase reporter plasmid pLG3basic (#1751, Promega) 3′ below the luciferase reporter element. Subsequently, an ABCA1 promoter fragment, 3.2 kb in size and amplified from human genomic DNA (#6550-1, Clontech) by the polymerase chain reaction, was cloned in 5′ above the luciferase reporter element. The reporter plasmid produced in this way was called pGL3BN-ABCA1P. Luciferase expression in this plasmid is controlled by the ABCA1 promoter. Cloning and sequencing of the construct took place in analogy to the description in Sambrook J et al. (Molecular cloning, Cold Spring Harbor Laboratory Press, 1989). For stable transfection into THP1 cells, firstly pGL3BN-ABCA1P was linearized with a restriction endonuclease and then introduced into the THP1 cells as stated in Ausubel, F. M. et al. (Current protocols in molecular biology, Vol. 1-3, John Wiley & Sons, Inc., 1995).
The activity of ABCA1 expression activators is determined in a 3-day test which is described below:
The ABCA1 reporter cell line comprises suspension cells. These are cultured until the concentration is 0.5×10^6 cells/ml in RPMI medium (#52400-025, Invitrogen) which is mixed with the following additions: 10% FCS (fetal calf serum; #16000-044, invitrogen), 0.5 mg/ml Geneticin (#10131-019, invitrogen) and 1% penicillin-streptomycin solution (#15140-122, invitrogen). The culturing takes place in standard cell culture flasks (#353112, Becton Dickinson) in a cell culture incubator at 37° C. in the presence of 5% CO2.
For the ABCA1 promoter test, the suspension cells are centrifuged at 1200 rpm in 50 ml tubes. The supernatant is aspirated off, and the pellet is resuspended in 15 ml of RPMI medium and counted in a cell counter. After dilution to 175 000 cells/ml, 0.1 μg/ml PMA (phorbol 12-myristate 13-acetate, #8139-5MG, Sigma) is added in order to induce differentiation of the monocytic THP1 suspension cells into adherent macrophages. 35 000 cells in each well are seeded in a 96-well microtiter plate with clear plastic base (#3610, Corning Costar). The plates are incubated in a cell culture incubator at 37° C. and 5% CO2 for 24 h.
The ABCA1 expression activators to be tested are dissolved in a concentration of 10 mM in DMSO. This stock solution is diluted in the RPMI medium (mixed with 0.1 μg/ml PMA) described above. Test substances are tested in 11 different concentrations in the range from […] to 330 pM. The medium of the ABCA1 reporter cell line seeded on day 1 is completely removed by aspiration and the diluted test substances are immediately added to the cells. The dilution and addition of the substances takes place with a pipetting robot (Beckman FX). The final volume of the test substances diluted in medium is 100 μl per well of a 96-well microtiter plate. The DMSO concentration in the test is less than 0.1% v/v in order to avoid cytotoxic effects of the solvent.
The test plates are incubated in an incubator at 37° C. and 5% CO2 for 24 h.
The ABCA1 reporter cells treated with the test substances are removed from the incubator and the medium is aspirated off. […]

SMILES	EC50
Cc1ccc(C)c(N2CCN(C(=O)[C@H]3CN(S(=O)(=O)c4cccs4)C[C@H]3c3ccccc3)CC2)c1 (racemic) [Example 117, [4-(2,5-Dimethylphenyl)piperazin-1-yl]-[3,4-cis-4-phenyl-1-(thiophene-2-sulfonyl)pyrrolidin-3-yl]methanone]	291 nM

Same assay, conditions: Homo sapiens, THP-1; ABCA1 reporter cell line (THP1, PMA-differentiated), 24 h incubation, luciferase chemiluminescence; read-out: E50 ABCA1

SMILES	EC50
Cc1cccc(N2CCN(C(=O)[C@@H]3CN(S(=O)(=O)c4cccs4)C[C@H]3c3ccccc3)CC2)c1C (racemic) [Example 52]	3270 nM
Cc1cccc(N2CCN(C(=O)[C@@H]3CN(S(=O)(=O)c4cc(Br)c(Br)s4)C[C@H]3c3ccccc3)CC2)c1C (racemic) [Example 53, [1-(4,5-Dibromothiophene-2-sulfonyl)-3,4-trans-4-phenylpyrrolidin-3-yl]-[4-(2,3-dimethylphenyl)piperazin-1-yl]methanone]	5760 nM
Cc1cccc(N2CCN(C(=O)[C@@H]3CN(S(=O)(=O)c4ccc(Cl)s4)C[C@H]3c3ccccc3)CC2)c1C (racemic) [Example 54, [1-(5-Chlorothiophene-2-sulfonyl)-3,4-trans-4-phenylpyrrolidin-3-yl]-[4-(2,3-dimethylphenyl)piperazin-1-yl]methanone]	4630 nM
Cc1cccc(N2CCN(C(=O)[C@@H]3CN(S(=O)(=O)c4cc(Cl)c(Cl)s4)C[C@H]3c3ccccc3)CC2)c1C (racemic) [Example 55, [1-(4,5-Dichlorothiophene-2-sulfonyl)-3,4-trans-4-phenylpyrrolidin-3-yl]-[4-(2,3-dimethylphenyl)piperazin-1-yl]methanone]	826 nM
COc1ccc(N2CCN(C(=O)[C@@H]3CN(S(=O)(=O)c4cc(Br)c(Br)s4)C[C@H]3c3ccccc3)CC2)cc1 (racemic) [Example 59]	1160 nM
COc1ccc(N2CCN(C(=O)[C@@H]3CN(S(=O)(=O)c4ccc(Cl)s4)C[C@H]3c3ccccc3)CC2)cc1 (racemic) [Example 60, [1-(5-Chlorothiophene-2-sulfonyl)-3,4-trans-4-phenylpyrrolidin-3-yl]-[4-(4-methoxyphenyl)piperazin-1-yl]methanone]	6680 nM
COc1ccc(N2CCN(C(=O)[C@@H]3CN(S(=O)(=O)c4cc(Cl)c(Cl)s4)C[C@H]3c3ccccc3)CC2)cc1 (racemic) [Example 61, [1-(4,5-Dichlorothiophene-2-sulfonyl)-3,4-trans-4-phenylpyrrolidin-3-yl]-[4-(4-methoxyphenyl)piperazin-1-yl]methanone]	2610 nM
O=C([C@@H]1CN(S(=O)(=O)c2cc(Br)c(Br)s2)C[C@H]1c1ccccc1)N1CCN(c2ccccc2)CC1 (racemic) [Example 64, [1-(4,5-Dibromothiophene-2-sulfonyl)-3,4-trans-4-phenylpyrrolidin-3-yl]-(4-phenylpiperazin-1-yl)methanone]	3160 nM
Cc1ccc(C)c(N2CCN(C(=O)[C@@H]3CN(S(=O)(=O)c4cccs4)C[C@H]3c3ccccc3)CC2)c1 (racemic) [Example 67, [4-(2,5-Dimethylphenyl)piperazin-1-yl]-[3,4-trans-4-phenyl-1-(thiophene-2-sulfonyl)pyrrolidin-3-yl]methanone]	2190 nM
COc1cccc(S(=O)(=O)N2C[C@@H](C(=O)N3CCN(c4cc(C)ccc4C)CC3)[C@H](c3ccccc3)C2)c1 (racemic) [Example 69, [4-(2,5-Dimethylphenyl)piperazin-1-yl]-[1-(3-methoxybenzenesulfonyl)-3,4-trans-4-phenylpyrrolidin-3-yl]methanone]	330 nM
Cc1ccc(C)c(N2CCN(C(=O)[C@@H]3CN(S(=O)(=O)c4c(C)noc4C)C[C@H]3c3ccccc3)CC2)c1 (racemic) [Example 71, [1-(3,5-Dimethylisoxazole-4-sulfonyl)-3,4-trans-4-phenylpyrrolidin-3-yl]-[4-(2,5-dimethylphenyl)piperazin-1-yl]methanone]	381 nM
COc1cccc(S(=O)(=O)N2C[C@@H](C(=O)N3CCN(c4c(C)cccc4C)CC3)[C@H](c3ccccc3)C2)c1 (racemic) [Example 86]	459 nM

Source: patent US7468369B2, “Sulfonyl pyrrolidines, method for producing the same and their use as drugs” (Sanofi-Aventis, priority 2005, dated 2008)
